Source: patent US4376785A, “Cyclopropanecarboxylates and a low fish toxic insecticide and/or acaricide containing them” (priority 1980, dated 1983)
Where two headings read alike, the source gives them in different places.

Key:
[1] = system: green rice leafhopper (Nephotettix cincticeps), R-strain; experiment: Insecticidal activity against green rice leafhopper, sprayed rice plants, Test example 1; format: in vivo; settings: green rice leafhopper female adults, spray on rice plant, 26° C., 24 hours
Procedure: The emulsifiable concentrates of the present compounds and reference compounds prepared in Preparation example 1 were each formulated into test solutions having four different concentrations of active ingredient between 500 ppm and 0.5 ppm. Each test solution was sprayed on a rice plant in a 180-ml plastic cup which had elapsed one month after sowing, at a rate of 15 ml/2 cups by means of a turn table. After air-drying, the rice plate was covered with a wire-screen cage, and 15 female adults of green rice leafhopper (Nephotettix cincticeps) (a strain resistant to carbamates and organo-phosphates, hereinafter referred to as R-strain) were liberated therein. The plant was placed in an artificial climate chamber kept at 26° C. After 24 hours, the dead and alive were examined. The median lethal concentratin [LC50 (ppm)] was calculated from the mortality determined by 3 replications. […]

[2] = Toxicity to killifish (TLm48), Test example 1; format: in vivo, Oryzias latipes; settings: for selectivity ratio: in vivo, TLm48 divided by concentration in water at green rice leafhopper LC50, read-out: Safety coefficient to fishes (a)/(b); for LC50 at 48 h: water, killifish, medium tolerance limit, read-out: Toxicity to fishes TLm48 (a)
Procedure: Toxicity to killifish (Oryzias latipes) was tested accordig to the test method for toxicity to fishes described in Notification B No. 2735 of the Ministry of Agriculture and Forestry (Nov. 25, 1965). Namely, each of the present compounds (1), (2), (4), (5), (6), (8), (9), (11) and reference compounds was dissolved or suspended in "Tween 80" and diluted successively with dechlorinated tap water. Ten killifish (0.2-0.3 g per fish) were released in a 10-liter glass vessel containing 5 liters of each preparation.
In order to make it clearer that the present compounds have a low toxicity to fishes as well as a high insecticidal activity, a safety coefficient to fishes was calculated from the test results of toxicity to fishes and insecticidal activity. [formula]
A detailed explanation will be given to a method of how to calculate the safety coefficient. In the case of green rice leafhoppers, calculation was based on the concentration of active ingredient in water obtained by applying a test solution containing the active ingredient in an amount corresponding to LC50 (ppm) to a flooded paddy field 5 cm deep at a rate of 100 liter/10 are, provided that all the active ingredient applied entered the water.
For example, the safety coefficient to fishes of the present compound (1) is calculated as follows: The quantity of water in a flooded paddy field 5 cm deep and 10 are in area is 50 tons; when a test solution containing the active ingredient in an amount corresponding to LC50 (ppm) is added to the paddy field at a rate of 100 liter/10 are the concentration of the active ingredient in water (hereinafter referred to as (b)) is 0.008 pp; as the toxicity to fishes [TLm48 (ppm)] (hereinafter referred to as (a)) is >2.0 ppm, said coefficient can be calculated by dividing (a) by (b). In this case, the coefficient is >250, which means that the present compound (1) has a safety higher than 250-fold.

[3] = system: housefly (Musca domestica); experiment: Housefly mortality, treated filter paper with bait, Test example 7; format: in vivo; settings: 0.7 ml on filter paper, housefly female adults, 48 hours
Procedure: The emulsifiable concentrate obtained in preparation Example 1 was diluted 200 times with water (corresponding to 500 ppm of the active ingredient). On the bottom a polyethylene cup of 5.5 cm in diameter was placed a piece of filter paper of the same size, and 0.7 ml of the above dilute liquor was dropped on the filter paper. Sucrose (30 mg) was placed on the paper as bait. Thereafter, 10 housefly female adults (Musca domestica) were liberated in the cup which was then covered with a lid. After 48 hours, the dead and alive were counted to obtain mortality (4 replications).

[4] = system: CSMA strain housefly (Musca domestica); experiment: Topical application to housefly adults, Test example 8; format: in vivo; settings: topical to ventral thorax, 0.5 μl/adult, female adults, 24 hours
Procedure: The present compounds as below and reference compounds were each diluted with acetone into test solutions having four different concentrations of active ingredient. Each test solution was topically applied to the ventral throrax of CSMA strain housefly female adults (Musca domestica), at a rate of 0.5 μl/adult by means of a microapplicator.
The adults were then liberated in a polyethylene cup and fed with milk, sugar and water. After 24 hours, the dead and alive were observed. The median lethal dosage (LD50 μg/adult) was obtained from the morality (3 replications).

[5] = system: carmine mites (Tetranychus cinnabarinus); experiment: Damage to rice plants by carmine mites, Test example 4; format: in vivo; settings: 500 ppm spray, after 10 days
Procedure: The emulsifiable concentrate of each of the present compounds (3), (5), (9) and (11) prepared in Preparation example 1 was diluted with water so that the concentration of the active ingredient was 500 ppm. The dilute liquor was thoroughly sprayed on rice plants (grown in a 1/10,000 are Waner's pot) on which carmine mites (Tetranychus cinnabarinus) in all stages were made parasitic.

[6] = system: green rice leafhopper (Nephotettix cincticeps); experiment: Simulated paddy field box test, green rice leafhopper, Test example 6; format: in vivo; settings: wettable powder, 100 ppm, 100 liter/10 are, after 48 hours
Procedure: (§1) The wettable powder of each of the present compounds (1), (3), (5), (6) and (11) prepared in Preparation example 4 was diluted with water so that the concentration of active ingredient was 100 ppm. Soil was placed in a plastic box [5 m×5 m×2 m (deep)] to a level of 50 cm from the bottom, and rice plants about 50 cm high were transplanted at invervals of 50 cm. Water was then placed in the box so that water depth was 5 cm, and 20 killifishes (Oryzias latipes) were liberated therein. Thereafter, the above dilute solution was sprayed on the box at a rate of 100 liter/10 are. The solution fell on the rice plants as well as on the water surface.
(§2) One hour after treatment, 100 female adults of green rice leafhopper (Nephotettix cincticeps) were liberated in the box which was immediately covered with a net.

[7] = system: killifishes (Oryzias latipes); experiment: Simulated paddy field box test, killifish survival, Test example 6; format: in vivo; settings: wettable powder, 100 ppm, 100 liter/10 are, water depth 5 cm, after 48 hours
Procedure: as §1, §2

[8] = system: yellow fever mosquito (Aedes aegypti); format: in vivo; settings: 50 mg of granules (Preparation example 6) in 100 ml water, full grown larvae, after 24 hours
Procedure: Fifty milligrams of each of the granules of the present compounds (5) and (11) obtained in Preparation example 6 was placed in a 100-ml beaker containing 100 ml of distilled water, and 30 full grown larvae of yellow fever mosquito (Aedes aegypti) were liberated therein. After 24 hours, 100% of the larvae could be killed.

[9] = system: green rice leafhopper (Nephotettix cincticeps); experiment: Residual effect test, Text example 5; format: in vivo; settings: 20 cc per pot, 24 hours
Procedure: The emulsifiable concentrate of each of the present compounds (5) and (11) prepared in Preparation example 1 was diluted with water so that the conentration of active ingredient was 400 ppm. Thereafter, 20 cc of the dilute solution was sprayed on rice plants grown in a 1/10,000 are Wagner's pot. The rice plants were air-dried and covered with a wire-screen cage, and 15 female adults of green rice leafhopper (Nephotettix cincticeps) were liberated therein. After 24 hours, the dead and alive were examined to obtain mortality. In order to examine the residual effect, the pot was then left as it was for 7 days, and the test insects were liberated in the same manner as above. After 24 hours, the mortality was examined. The experiment was carried out in a greenhouse and the number of replications was three.

With `CC1(C)[C@H](C(=O)OC(C#N)c2ccc(F)c(Oc3ccc(Br)cc3)c2)[C@@H]1C(Br)C(Br)(Br)Br` (stereo partly drawn) [compound (4), 3-(4-Bromophenoxy)-4-fluoro-α-cyanobenzyl d-cis-2,2-dimethyl-3-(1,2,2,2-tetrabromoethyl)cyclopropanecarboxylate] the LC50 [1] was 6.3 ppm, the selectivity ratio [2] was over 154 and the LC50 at 48 h [2] was over 2 µg/mL.

In the case of `CC1(C)[C@H](C(=O)OC(C#N)c2ccc(F)c(Oc3ccc(Cl)cc3)c2)[C@@H]1C(Br)C(Cl)(Cl)Br` (stereo partly drawn) [compound (10), 3-(4-Chlorophenoxy)-4-fluoro-α-cyanobenzyl d-cis-2,2-dimethyl-3-(1,2-dibromo-2,2-dichloroethyl)cyclopropanecarboxylate], the mortality at 500 ppm [3] is reported as 100% and the LD50 [4] is reported as 0.030 μg/adult.

`CC1(C)[C@H](C(=O)OC(C#N)c2ccc(F)c(Oc3ccc(Br)cc3)c2)[C@@H]1C(Br)C(Cl)(Cl)Br` (relative stereo) [compound (2), 3-(4-Bromophenoxy)-4-fluoro-α-cyanobenzyl dl-cis-2,2-dimethyl-3-(1,2-dibromo-2,2-dichloroethyl)cyclopropanecarboxylate] showed an LC50 [1] of 6.0 ppm, a selectivity ratio [2] of over 167 and an LC50 at 48 h [2] of over 2 µg/mL.

For `CC1(C)C(C(=O)OC(C#N)c2ccc(F)c(Oc3ccc(Br)cc3)c2)C1C(Br)C(Br)(Br)Br` (stereo not drawn) [compound (3), 3-(4-Bromophenoxy)-4-fluoro-α-cyanobenzyl 2,2-dimethyl-3-(1,2,2,2-tetrabromoethyl)cyclopropanecarboxylate], the “damage to rice plants by carmine mites” value [5] was “the spreading of the damage could be prevented”, the “green rice leafhoppers alive” value [6] was “no alive green rice leafhoppers were found” and the killifishes alive [7] was “all of the killifishes were alive”.

With `CC1(C)C(C=C(Cl)Cl)C1C(=O)OC(C#N)c1ccc(F)c(Oc2ccccc2)c1` (stereo not drawn) [(B), reference compound] the LC50 [1] was 2.5 ppm, the selectivity ratio [2] was under 2 and the LC50 at 48 h [2] was under 0.01 µg/mL.

In the case of `CC1(C)C(C(=O)OC(C#N)c2ccc(F)c(Oc3ccc(Br)cc3)c2)C1C(Br)C(Cl)(Cl)Br` (stereo not drawn) [(11), 3-(4-bromphenoxy)-4-fluoro-α-cyanobenzyl 2,2-dimethyl-3-(1,2-dibromo-2,2-dichloroethyl)cyclopropanecarboxylate], the LC50 [1] is reported as 4.7 ppm, the “damage to rice plants by carmine mites” value [5] is reported as “the spreading of the damage could be prevented” and the larvae killed [8] is reported as 100%. For the same compound, the mortality at 400 ppm ([9]; insects liberated 7 days after treatment, read-out: Mortality, effect 7 days after treatment) was 100%, the mortality at 400 ppm ([9]; read-out: Mortality, effect immediately after treatment) was 100% and the “green rice leafhoppers alive” value [6] was “no alive green rice leafhoppers were found”. The selectivity ratio [2] was over 200, the LC50 at 48 h [2] was over 2 µg/mL and the killifishes alive [7] was “all of the killifishes were alive”.

For `CC1(C)C(C(=O)OC(C#N)c2cccc(Oc3ccccc3)c2)C1C(Br)C(Cl)(Cl)Br` (stereo not drawn) [(A), reference compound], the LC50 [1] was 5.0 ppm and the selectivity ratio [2] was 50.

For `CC1(C)C(C(=O)OC(C#N)c2cccc(Oc3ccc(Cl)cc3)c2)C1C(Br)C(Cl)(Cl)Br` (stereo not drawn) [(C), reference compound], the LD50 [4] was 0.062 μg/adult.

`CC1(C)[C@H](C(=O)OC(C#N)c2ccc(F)c(Oc3ccc(Cl)cc3)c2)[C@@H]1C(Br)C(Cl)(Cl)Br` (relative stereo) [compound (7), 3-(4-Chlorophenoxy)-4-fluoro-α-cyanobenzyl dl-cis-2,2-dimethyl-3-(1,2-dibromo-2,2-dichloroethyl)cyclopropanecarboxylate] showed a mortality at 500 ppm [3] of 100%.

`CC1(C)[C@H](C(=O)OC(C#N)c2ccc(F)c(Oc3ccc(Cl)cc3)c2)[C@H]1C(Br)C(Cl)(Cl)Br` (relative stereo) [compound (6), 3-(4-Chlorophenoxy)-4-fluoro-α-cyanobenzyl dl-trans-2,2-dimethyl-3-(1,2-dibromo-2,2-dichloroethyl)cyclopropanecarboxylate] gave a mortality at 500 ppm [3] of 100%, an LC50 [1] of 2.7 ppm and an LD50 [4] of 0.031 μg/adult. The “green rice leafhoppers alive” value [6] was “no alive green rice leafhoppers were found”, the selectivity ratio [2] was over 200 and the LC50 at 48 h [2] was over 1 µg/mL. For the same compound, the killifishes alive [7] was “all of the killifishes were alive”.

In the case of `CC1(C)C(C(=O)OC(C#N)c2cccc(Oc3ccc(Br)cc3)c2)C1C(Br)C(Cl)(Cl)Br` (stereo not drawn) [(D), reference compound], the LD50 [4] is reported as 0.063 μg/adult.

With `CC1(C)C(C(=O)OC(C#N)c2ccc(F)c(Oc3ccc(Cl)cc3)c2)C1C(Br)C(Br)(Br)Br` (stereo not drawn) [compound (8), 3-(4-Chlorophenoxy)-4-fluoro-α-cyanobenzyl 2,2-dimethyl-3-(1,2,2,2-tetrabromoethyl)cyclopropanecarboxylate] the mortality at 500 ppm [3] was 100%, the LC50 [1] was 5.8 ppm and the selectivity ratio [2] was over 83. It also gave an LC50 at 48 h [2] of over 1 µg/mL.

In the case of `CC1(C)[C@H](C(=O)OC(C#N)c2ccc(F)c(Oc3ccc(Cl)cc3)c2)[C@H]1C(Br)C(Cl)(Cl)Br` (stereo partly drawn) [compound (9), 3-(4-Chlorophenoxy)-4-fluoro-α-cyanobenzyl d-trans-2,2-dimethyl-3-(1,2-dibromo-2,2-dichloroethyl)cyclopropanecarboxylate], the mortality at 500 ppm [3] is reported as 100%, the LC50 [1] is reported as 1.5 ppm and the “damage to rice plants by carmine mites” value [5] is reported as “the spreading of the damage could be prevented”. The LD50 [4] was 0.018 μg/adult, the selectivity ratio [2] was over 333 and the LC50 at 48 h [2] was over 1 µg/mL.
